Measured values reported in patent publication US20250213533A1 (GH RESEARCH IRELAND LIMITED, priority 2022, published 2025).

Columns and labels:
[1] = Pharmacokinetics of 5-MeO-DMT and bufotenine after inhalation of 5-MeO-DMT in subjects; type: in vivo, human
[2] = system: Salmonella typhimurium (TA98, TA100, TA1535 and TA1537); test: Bacterial mutation test, histidine-requiring strains; type: cell-based; settings: up to 5000 μg/plate, absence and presence of rat liver S-9
Experimental: These conditions included treatments at concentrations up to 5000 μg/plate (the maximum recommended concentration according to current regulatory guidelines), in the absence and in the presence of a rat liver metabolic activation system (S-9).

5-HT1A receptors = biological target: T1, 5-HT1A receptors (Homo sapiens, UniProt P08908); test: Radioligand binding ([3H]8-OH-DPAT) to 5-HT1A receptors in post-mortem human hippocampus membranes
T1 construct: 5-HT1A and 5-HT2A receptors in post-mortem human brain tissue from the hippocampus and frontal cortex, respectively; tissue Edinburgh Sudden Death Brain Bank; host or cells: post-mortem human hippocampus membranes
T1 sequence (P08908 1-422): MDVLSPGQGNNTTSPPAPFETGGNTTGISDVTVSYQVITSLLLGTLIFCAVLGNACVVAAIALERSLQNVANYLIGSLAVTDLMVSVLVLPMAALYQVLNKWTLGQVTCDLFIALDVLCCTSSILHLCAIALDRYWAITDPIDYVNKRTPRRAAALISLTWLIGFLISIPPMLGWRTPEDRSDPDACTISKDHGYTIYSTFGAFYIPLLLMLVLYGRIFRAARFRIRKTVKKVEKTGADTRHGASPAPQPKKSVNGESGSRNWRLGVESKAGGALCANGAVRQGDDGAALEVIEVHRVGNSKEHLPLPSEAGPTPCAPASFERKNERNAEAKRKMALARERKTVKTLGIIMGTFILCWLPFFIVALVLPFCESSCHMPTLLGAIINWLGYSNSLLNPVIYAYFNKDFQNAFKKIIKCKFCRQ

With COc1ccc2[nH]cc(CCN(C)C)c2c1 [5-MeO-DMT] the detectability in plasma ([1]; 3 hours after inhalation, 6, 12, 18 mg) was “no longer detectable”, the absorption and distribution ([1]; inhaled) was “rapid absorption and distribution” and the “pharmacokinetic measurements with uptitration dosing schemes compared with single doses” value ([1]; uptitration, inhaled) was “Substantially similar results”. The induction of mutation [2] was “did not induce mutation” and the “affinity for 5-HT1A receptors (in words)” value (5-HT1A receptors) was “high affinity”.
